Several values for one entry are separate records, joined by “and”; a condition that tells them apart may be missing. Equal entries are not always repeated. Where two headings read alike, the source gives them in different places. Where no end group is shown, it is not given here.
Legend:
[1] = tested on: PfCRT; assay: Test of solutes as potential co-substrates for influx of VF-6 via PfCRT into the oocyte; format: cell-based, Plasmodium falciparum; design: key: X: Compounds that have been tested as potential co-substrates but are not required for influx of VF-6 via PfCRT into the oocyte; settings: X = tested
[2] = target: PfCRT^Ecu1110 (Plasmodium falciparum, UniProt Q9N623, A220S/I356L/K76T/N326D); assay: cell-based; settings: trans-inhibition, treatment 45 mM
Description: (§1) The characterisation of [^3H]VF-6 transport via 23 different field and laboratory-derived isoforms of PfCRT was undertaken with oocytes two days post-cRNA-injection (Figs. 3a–j, 4; Supplementary Fig. 2). The oocytes were injected with 25 nL of ND96 buffer (pH 5.5) supplemented with [^3H]VF-6 and unlabelled VF-6 to achieve estimated intracellular concentrations of 1.4 and 200 μM, respectively. Ten oocytes that had resealed at the injection site were transferred to a 5 mL polystyrene round bottom tube (In Vitro Technologies) and washed with 3.5 mL of ND96 buffer before being transferred to separate wells of a white 96-well plate (PerkinElmer). This treatment served to establish the amount of radioactivity within the oocytes immediately prior to the commencement of the transport assay. Another 10 resealed oocytes were transferred to a 5 mL tube and washed with 3.5 mL of ND96 buffer. […] The assay was terminated by removing the reaction buffer with a pipette and washing the oocytes twice with 3.5 mL of ice-cold ND96 buffer. Each oocyte was transferred to a separate well of a white 96-well plate. The oocytes were lysed by the addition of 20 μL of 10% (w/v) SDS and overnight incubation at room temperature. The lysed oocyte was then combined with 150 μL of MicroScint-40 microscintillant (PerkinElmer), the plate covered with a TopSeal-A (PerkinElmer), and the radioactivity measured with a MicroBeta^2 microplate liquid scintillation analyser (PerkinElmer). VF-6 transport was calculated by subtracting the amount of radioactivity (measured in counts per minute) present within the oocytes at the end of the incubation from that measured in the oocytes sampled immediately before the commencement of the assay. The pH-dependence of transport (Fig. 3c) was determined by injecting the oocytes with [^3H]VF-6 suspended in 25 nL ND96 buffer adjusted to pH 5.0, 5.5, 6.0 or 7.0, which corresponded to the injection of 2.5–250 fmol of H^+. The dependence of [^3H]VF-6 transport on Na^+ or Cl^− was examined by injecting the oocytes with [^3H]VF-6 suspended in the control ND96 buffer (pH 5.5) or a version of this buffer that lacked either Na^+ or Cl^− (Supplementary Fig. 2). […] The dependence of peptide transport on Ca^2+ was determined by injecting the oocytes with [^3H]VF-6 suspended in ND96 buffers that contained different concentrations of Ca^2+ (0–5 mM; Supplementary Fig. 2). […] The dependence of PfCRT-mediated transport on the membrane potential was examined by using (1) Na^+ ionophore III in conjunction with the Na^+ gradients listed in Supplementary Data 7 and (2) Cl^− ionophore III in conjunction with the Cl^− gradients listed in Supplementary Data 7 to clamp the membrane potential of the oocyte from −80 to +80 mV. […] The kinetic parameters for VF-6 transport via different isoforms of PfCRT (Figs. 3e and 4a) were determined in SigmaPlot Windows Version 11.0 by a least-squares fit of the Michaelis–Menten equation to the data.
(§2) A subset of assays measured the ability of solutes known to interact with PfCRT to either cis-inhibit, trans-inhibit or trans-stimulate [^3H]VF-6 transport. These experiments involved adding these solutes to either the cis- or trans-side of the membrane relative to [^3H]VF-6. […] At least five independent experiments were performed (on different days and using oocytes from different frogs), and within each experiment measurements were made from ten oocytes per treatment.

[3] = target: PfCRT^Dd2 (Plasmodium falciparum, UniProt Q9N623, A220S/I356T/K76T/M74I/N326S/N75E/Q271E/R371I); assay: cell-based; settings: trans-inhibition, treatment 45 mM
Description: as §1, §2

[4] = target: PfCRT^3D7 (Plasmodium falciparum, UniProt Q8IBZ9); assay: cell-based
Description: as §1, §2

[5] = target: T1, PfNT1 (Plasmodium falciparum, UniProt Q8IDM6); assay: [3H]VF-6 transport (efflux) from injected Xenopus oocytes; format: cell-based; settings: trans-inhibition, treatment 45 mM
T1 construct: expressed in transfected cells; host or cells: Xenopus laevis oocytes (stage V-VI), cRNA-injected

[6] = trans-inhibition, treatment 45 mM, Experiment 1
[7] = trans-inhibition, treatment 45 mM, Experiment 2
[8] = trans-inhibition, treatment 45 mM, Experiment 3
[9] = trans-inhibition, treatment 45 mM, Experiment 4
[10] = trans-inhibition, treatment 45 mM, Experiment 5

Chain of PfCRT^Ecu1110 (Q9N623 whole entry A220S/I356L/K76T/N326D, canonical isoform): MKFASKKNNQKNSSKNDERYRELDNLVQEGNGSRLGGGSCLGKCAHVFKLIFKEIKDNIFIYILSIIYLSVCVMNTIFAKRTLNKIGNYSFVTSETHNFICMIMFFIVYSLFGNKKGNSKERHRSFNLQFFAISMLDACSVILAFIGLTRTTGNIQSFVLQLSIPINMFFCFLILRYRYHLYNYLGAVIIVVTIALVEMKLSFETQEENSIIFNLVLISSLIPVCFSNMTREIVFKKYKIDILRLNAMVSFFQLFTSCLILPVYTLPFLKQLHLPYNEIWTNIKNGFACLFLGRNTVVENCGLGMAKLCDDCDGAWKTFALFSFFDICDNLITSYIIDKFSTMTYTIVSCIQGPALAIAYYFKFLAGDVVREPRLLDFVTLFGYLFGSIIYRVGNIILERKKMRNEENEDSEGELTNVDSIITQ
Chain of PfCRT^3D7 (Q8IBZ9 59-398): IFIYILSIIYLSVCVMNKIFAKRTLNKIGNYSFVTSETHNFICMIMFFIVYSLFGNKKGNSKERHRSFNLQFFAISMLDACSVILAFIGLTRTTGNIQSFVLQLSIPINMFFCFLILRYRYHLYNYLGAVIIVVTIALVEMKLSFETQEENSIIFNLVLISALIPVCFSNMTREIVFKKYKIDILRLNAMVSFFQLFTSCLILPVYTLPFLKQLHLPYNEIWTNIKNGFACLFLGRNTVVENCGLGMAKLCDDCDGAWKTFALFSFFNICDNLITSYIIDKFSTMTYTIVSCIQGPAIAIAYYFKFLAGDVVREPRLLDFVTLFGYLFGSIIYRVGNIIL
Chain of PfCRT^Dd2 (Q9N623 whole entry A220S/I356T/K76T/M74I/N326S/N75E/Q271E/R371I): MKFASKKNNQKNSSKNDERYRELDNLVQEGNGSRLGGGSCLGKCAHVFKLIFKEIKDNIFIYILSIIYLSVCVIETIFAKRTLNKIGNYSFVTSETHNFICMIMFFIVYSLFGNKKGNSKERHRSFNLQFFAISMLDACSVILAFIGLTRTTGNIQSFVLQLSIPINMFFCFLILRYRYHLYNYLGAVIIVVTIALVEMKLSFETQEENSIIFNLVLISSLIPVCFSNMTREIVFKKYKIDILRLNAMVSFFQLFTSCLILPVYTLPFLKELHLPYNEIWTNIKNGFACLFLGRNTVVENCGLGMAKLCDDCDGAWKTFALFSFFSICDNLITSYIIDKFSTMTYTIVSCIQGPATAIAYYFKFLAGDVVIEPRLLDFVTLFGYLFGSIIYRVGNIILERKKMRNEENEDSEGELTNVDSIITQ
T1 sequence (Q8IDM6 whole entry): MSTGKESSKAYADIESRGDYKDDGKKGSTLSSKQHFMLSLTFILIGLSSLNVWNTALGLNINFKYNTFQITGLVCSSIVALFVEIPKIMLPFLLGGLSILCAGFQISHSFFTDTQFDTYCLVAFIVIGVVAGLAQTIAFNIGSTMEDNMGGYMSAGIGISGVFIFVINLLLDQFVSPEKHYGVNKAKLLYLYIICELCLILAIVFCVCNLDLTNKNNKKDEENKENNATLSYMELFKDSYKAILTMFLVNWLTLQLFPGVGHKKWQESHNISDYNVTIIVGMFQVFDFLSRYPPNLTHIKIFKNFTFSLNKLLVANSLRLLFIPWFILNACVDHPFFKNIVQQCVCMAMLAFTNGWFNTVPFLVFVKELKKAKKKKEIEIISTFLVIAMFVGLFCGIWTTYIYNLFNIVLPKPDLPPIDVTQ

Compound	Tested as potential co-substrate but not required for influx of VF-6 via PfCRT into the oocyte [1]	[3H]VF-6 transport, PfCRTEcu1110 (% PfCRT3D7 control) ([2]; Experiment 1)	[3H]VF-6 transport, PfCRTEcu1110 (% PfCRT3D7 control) ([2]; Experiment 2)	[3H]VF-6 transport, PfCRTEcu1110 (% PfCRT3D7 control) ([2]; Experiment 3)	[3H]VF-6 transport, PfCRTEcu1110 (% PfCRT3D7 control) ([2]; Experiment 4)	[3H]VF-6 transport, PfCRTEcu1110 (% PfCRT3D7 control) ([2]; Experiment 5)	[3H]VF-6 transport, PfCRTDd2 (% PfCRT3D7 control) ([3]; Experiment 1)	[3H]VF-6 transport, PfCRTDd2 (% PfCRT3D7 control) ([3]; Experiment 2)	[3H]VF-6 transport, PfCRTDd2 (% PfCRT3D7 control) ([3]; Experiment 3)	[3H]VF-6 transport, PfCRTDd2 (% PfCRT3D7 control) ([3]; Experiment 4)	[3H]VF-6 transport, PfCRTDd2 (% PfCRT3D7 control) ([3]; Experiment 5)	[3H]VF-6 transport, PfNT1 (% PfCRT3D7 control) ([5]; Experiment 1)	[3H]VF-6 transport, PfNT1 (% PfCRT3D7 control) ([5]; Experiment 2)	[3H]VF-6 transport, PfNT1 (% PfCRT3D7 control) ([5]; Experiment 3)	[3H]VF-6 transport, PfNT1 (% PfCRT3D7 control) ([5]; Experiment 4)	[3H]VF-6 transport, PfNT1 (% PfCRT3D7 control) ([5]; Experiment 5)	[3H]VF-6 transport, PfCRT3D7 (% PfCRT3D7 control) [4, 6]	[3H]VF-6 transport, PfCRT3D7 (% PfCRT3D7 control) [4, 7]	[3H]VF-6 transport, PfCRT3D7 (% PfCRT3D7 control) [4, 8]	[3H]VF-6 transport, PfCRT3D7 (% PfCRT3D7 control) [4, 9]	further results
N[C@@H](Cc1ccccc1)C(=O)O [L-phenylalanine]	X																				
N[C@@H](CO)C(=O)O [L-serine]	X																				
C[C@@H](O)[C@H](N)C(=O)O [L-threonine]	X																				
N[C@@H](Cc1c[nH]c2ccccc12)C(=O)O [L-tryptophan]	X																				
N[C@@H](Cc1ccc(O)cc1)C(=O)O [L-tyrosine]	X																				
DPVN [VF-6-derived peptide]		9.56 % PfCRT3D7 control	9.46 % PfCRT3D7 control	8.39 % PfCRT3D7 control	9.45 % PfCRT3D7 control	9.93 % PfCRT3D7 control	7.83 % PfCRT3D7 control	7.93 % PfCRT3D7 control	7.34 % PfCRT3D7 control	7.75 % PfCRT3D7 control	8.53 % PfCRT3D7 control	3.26 % PfCRT3D7 control	3.27 % PfCRT3D7 control	3.74 % PfCRT3D7 control	3.42 % PfCRT3D7 control	3.57 % PfCRT3D7 control					[3H]VF-6 transport, PfCRT3D7 (% PfCRT3D7 control) [4]: 26.43 % PfCRT3D7 control and 27.43 % PfCRT3D7 control and 23.23 % PfCRT3D7 control and 20.32 % PfCRT3D7 control and 20.85 % PfCRT3D7 control
DPVNF [VF-6-derived peptide]		7.36 % PfCRT3D7 control	8.38 % PfCRT3D7 control	7.23 % PfCRT3D7 control	8.43 % PfCRT3D7 control	7.77 % PfCRT3D7 control	9.35 % PfCRT3D7 control	8.35 % PfCRT3D7 control	9.55 % PfCRT3D7 control	8.26 % PfCRT3D7 control	9.66 % PfCRT3D7 control	3.26 % PfCRT3D7 control	3.36 % PfCRT3D7 control	3.25 % PfCRT3D7 control	3.79 % PfCRT3D7 control	3.25 % PfCRT3D7 control	21.64 % PfCRT3D7 control	22.13 % PfCRT3D7 control	19.38 % PfCRT3D7 control	18.32 % PfCRT3D7 control	[3H]VF-6 transport, PfCRT3D7 (% PfCRT3D7 control) [4, 10]: 19.24 % PfCRT3D7 control
PVNF [VF-6-derived peptide]		10.55 % PfCRT3D7 control	12.46 % PfCRT3D7 control	11.35 % PfCRT3D7 control	10.58 % PfCRT3D7 control	10.07 % PfCRT3D7 control	8.23 % PfCRT3D7 control	8.92 % PfCRT3D7 control	7.3 % PfCRT3D7 control	7.53 % PfCRT3D7 control	7.44 % PfCRT3D7 control	4.26 % PfCRT3D7 control	4.27 % PfCRT3D7 control	4.41 % PfCRT3D7 control	3.17 % PfCRT3D7 control	4.26 % PfCRT3D7 control					[3H]VF-6 transport, PfCRT3D7 (% PfCRT3D7 control) [4]: 25.32 % PfCRT3D7 control and 24.64 % PfCRT3D7 control and 25.23 % PfCRT3D7 control and 25.9 % PfCRT3D7 control and 23.94 % PfCRT3D7 control
VDPVN [VF-6-derived peptide]		6.34 % PfCRT3D7 control	5.74 % PfCRT3D7 control	6.34 % PfCRT3D7 control	6.94 % PfCRT3D7 control	6.25 % PfCRT3D7 control	7.28 % PfCRT3D7 control	7.49 % PfCRT3D7 control	7.54 % PfCRT3D7 control	7.59 % PfCRT3D7 control	7.33 % PfCRT3D7 control	3.27 % PfCRT3D7 control	3.32 % PfCRT3D7 control	3.39 % PfCRT3D7 control	3.68 % PfCRT3D7 control	3.32 % PfCRT3D7 control	20.24 % PfCRT3D7 control	19.6 % PfCRT3D7 control	22.64 % PfCRT3D7 control	22.05 % PfCRT3D7 control	[3H]VF-6 transport, PfCRT3D7 (% PfCRT3D7 control) [4, 10]: 19.48 % PfCRT3D7 control
VDPVNF [VF-6]												3.58 % PfCRT3D7 control	3.28 % PfCRT3D7 control	3.22 % PfCRT3D7 control	4.26 % PfCRT3D7 control	4.11 % PfCRT3D7 control	17.84 % PfCRT3D7 control	18.04 % PfCRT3D7 control	20.27 % PfCRT3D7 control	18.57 % PfCRT3D7 control	[3H]VF-6 transport, PfCRT3D7 (% PfCRT3D7 control) [4, 10]: 17.74 % PfCRT3D7 control

Source: paper PMC7413254 (Nature Communications, 2020)
